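Assay format: 96-well plates, 48-hour exposure. GI50 marks 50% less growth.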 Active and inactive are the calls of the source. Rule as the data show it: active = GI50 up to about 1.1 µM and inactive = higher.
Tests used:
Experiment in all cases: NCI tumour cell line growth inhibition, 48 h
U-251 = tested on: U-251
SNB-75 = tested on: SNB-75
HT-29 = tested on: HT-29
M19-MEL = tested on: M19-MEL
KM12 = tested on: KM12
CCRF-CEM = tested on: CCRF-CEM
TK-10 = tested on: TK-10
OVCAR-3 = tested on: OVCAR-3
A549 = tested on: A549
SNB-19 = tested on: SNB-19
Malme-3M = tested on: Malme-3M
OVCAR-5 = tested on: OVCAR-5
HCT-116 = tested on: HCT-116
UACC-257 = tested on: UACC-257
SF-268 = tested on: SF-268
COLO 205 = tested on: COLO 205
SK-MEL-5 = tested on: SK-MEL-5
SR = tested on: SR

Row | Structure (SMILES) | GI50 (U-251) | GI50 (SNB-75) | GI50 (HT-29) | GI50 (M19-MEL) | GI50 (KM12) | GI50 (CCRF-CEM) | GI50 (TK-10) | GI50 (OVCAR-3) | GI50 (A549) | GI50 (SNB-19) | GI50 (Malme-3M) | GI50 (OVCAR-5) | GI50 (HCT-116) | GI50 (UACC-257) | GI50 (SF-268) | GI50 (COLO 205) | GI50 (SK-MEL-5) | GI50 (SR)
1 | NC1=C(Br)C(=O)c2ncccc2C1=O | 0.177 µM (active) | 0.183 µM (active) | 1.69 µM (inactive) | 0.159 µM (active) | 1.12 µM (active) | 1.4 µM (inactive) | 2.62 µM (inactive) | 1.09 µM (active) | 0.855 µM (active) | 1.25 µM (inactive) | 0.466 µM (active) | 1.95 µM (inactive) | 0.22 µM (active) | 0.483 µM (active) | 0.42 µM (active) | 1.71 µM (inactive) | 0.284 µM (active) | 0.173 µM (active)
2 | C[N+](C)(C)Cc1c(CC#N)[nH]c2ccccc12 | > 100 µM (inactive) | 96.2 µM (inactive) | > 100 µM (inactive) | > 100 µM (inactive) | > 100 µM (inactive) | 35.4 µM (inactive) | > 100 µM (inactive) | > 100 µM (inactive) | > 100 µM (inactive) | > 100 µM (inactive) | > 100 µM (inactive) | > 100 µM (inactive) | > 100 µM (inactive) | > 100 µM (inactive) | > 100 µM (inactive) | > 100 µM (inactive) | > 100 µM (inactive) | 44.6 µM (inactive)
3 | NC(=O)CCC(NC(=O)Cc1ccccc1)C(=O)O.NC(CCC(=O)NC(=O)Cc1ccccc1)C(=O)O (configuration not stated) | > 8130 µM (inactive) | 1080 µM (inactive) | > 8130 µM (inactive) | > 8130 µM (inactive) | > 8130 µM (inactive) | > 8130 µM (inactive) | > 8130 µM (inactive) | > 8130 µM (inactive) | > 8130 µM (inactive) | > 8130 µM (inactive) | > 8130 µM (inactive) | > 8130 µM (inactive) | > 8130 µM (inactive) |  | > 8130 µM (inactive) | > 8130 µM (inactive) | > 8130 µM (inactive) | > 8130 µM (inactive)
4 | C/C(CC(=O)N(C(C)C)C(C)C)=N\NC(=O)c1ccncc1 | > 100 µM (inactive) | 95.7 µM (inactive) | > 100 µM (inactive) | > 100 µM (inactive) |  | > 100 µM (inactive) |  | > 100 µM (inactive) | > 100 µM (inactive) | > 100 µM (inactive) | > 100 µM (inactive) |  | > 100 µM (inactive) | > 100 µM (inactive) | > 100 µM (inactive) | > 100 µM (inactive) | > 100 µM (inactive) | > 100 µM (inactive)
5 | Cn1c(C2CC(C)(C)c3c2c2ccccc2n3C)cc2ccccc21 (configuration not stated) | > 304 µM (inactive) |  | > 304 µM (inactive) | > 304 µM (inactive) | > 304 µM (inactive) | > 304 µM (inactive) | > 304 µM (inactive) | 64.6 µM (inactive) | > 304 µM (inactive) | > 304 µM (inactive) | > 304 µM (inactive) | > 304 µM (inactive) | 30.1 µM (inactive) | 265 µM (inactive) | > 304 µM (inactive) | > 304 µM (inactive) | > 304 µM (inactive) | > 304 µM (inactive)
6 | CN(C)CCNC(=O)C1COc2cc(-c3cc(=O)c4ccccc4o3)ccc2O1 (configuration not stated) | 20.1 µM (inactive) | 17.8 µM (inactive) | 16.9 µM (inactive) | > 100 µM (inactive) |  | 30.4 µM (inactive) | 29.6 µM (inactive) | 20.5 µM (inactive) | 16.9 µM (inactive) | 23.1 µM (inactive) | 21.7 µM (inactive) | 29.6 µM (inactive) | 15.1 µM (inactive) | 18.5 µM (inactive) | 23.7 µM (inactive) | 16.6 µM (inactive) | 15.2 µM (inactive) | 15.6 µM (inactive)
7 | O=Cc1cn(S(=O)(=O)c2ccccc2)c2ccccc12 | 27.6 µM (inactive) | 26.2 µM (inactive) | 55.5 µM (inactive) | 37.5 µM (inactive) | 86.5 µM (inactive) | 23.3 µM (inactive) | > 100 µM (inactive) | 41 µM (inactive) | > 100 µM (inactive) | 54.2 µM (inactive) | 34.5 µM (inactive) | > 100 µM (inactive) | 20 µM (inactive) | 29.6 µM (inactive) | 25.5 µM (inactive) |  |  | 20.1 µM (inactive)
8 | CC(=O)n1ccc2c(Cl)ncnc21 | > 100 µM (inactive) | < 0.01 µM (active) | > 100 µM (inactive) | > 100 µM (inactive) | > 100 µM (inactive) | > 100 µM (inactive) | > 100 µM (inactive) | > 100 µM (inactive) | > 100 µM (inactive) | > 100 µM (inactive) |  |  | > 100 µM (inactive) | > 100 µM (inactive) | > 100 µM (inactive) | > 100 µM (inactive) | > 100 µM (inactive) | > 100 µM (inactive)
9 | COc1ccc(/C(Cl)=C(\C=N/O)c2ccc(OC)c(OC)c2)cc1OC | > 100 µM (inactive) | > 100 µM (inactive) | > 100 µM (inactive) | > 100 µM (inactive) | > 100 µM (inactive) | > 100 µM (inactive) | > 100 µM (inactive) | > 100 µM (inactive) | > 100 µM (inactive) | > 100 µM (inactive) | > 100 µM (inactive) | > 100 µM (inactive) | > 100 µM (inactive) | > 100 µM (inactive) | > 100 µM (inactive) | > 100 µM (inactive) | > 100 µM (inactive) | > 100 µM (inactive)
10 | Nc1nc(SCCNC(=O)CCc2ccc(O)cc2)nc2c1ncn2C1OC(CO)C(O)C1O (configuration not stated) | > 203 µM (inactive) | > 203 µM (inactive) | > 203 µM (inactive) | > 203 µM (inactive) | > 203 µM (inactive) | > 203 µM (inactive) | > 203 µM (inactive) | > 203 µM (inactive) | > 203 µM (inactive) | > 203 µM (inactive) | > 203 µM (inactive) | > 203 µM (inactive) | > 203 µM (inactive) | > 203 µM (inactive) | > 203 µM (inactive) | > 203 µM (inactive) | > 203 µM (inactive) | > 203 µM (inactive)
11 | O=C(c1ccccc1)c1nc2c(Cl)ccc(Cl)c2cc1C(Br)Br | 1.11 µM (active) | 0.668 µM (active) |  | 1.83 µM (inactive) | 1.14 µM (inactive) | 0.191 µM (active) | 1.43 µM (inactive) | 1.55 µM (inactive) | 3.08 µM (inactive) | 1.54 µM (inactive) | 2.19 µM (inactive) | 1.08 µM (active) | 0.375 µM (active) | 0.419 µM (active) | 1.41 µM (inactive) | 3.19 µM (inactive) | 1.34 µM (inactive) | 1.59 µM (inactive)
12 | Cc1ccc(C)c(NC(=O)C(=O)C(C2C(C)CC(=O)C2CC(=O)O)[N+](=O)[O-])c1 (configuration not stated) | > 100 µM (inactive) | > 100 µM (inactive) | > 100 µM (inactive) | > 100 µM (inactive) | > 100 µM (inactive) | > 100 µM (inactive) | > 100 µM (inactive) | > 100 µM (inactive) | > 100 µM (inactive) | > 100 µM (inactive) | > 100 µM (inactive) | > 100 µM (inactive) | > 100 µM (inactive) | > 100 µM (inactive) | > 100 µM (inactive) | > 100 µM (inactive) | > 100 µM (inactive) | > 100 µM (inactive)
13 | O=c1c2ccccc2c2c3c1cccc3c1cccc3c(=O)c4ccccc4c2c31 | > 100 µM (inactive) | > 100 µM (inactive) | > 100 µM (inactive) | > 100 µM (inactive) | > 100 µM (inactive) | > 100 µM (inactive) | > 100 µM (inactive) | > 100 µM (inactive) | > 100 µM (inactive) | > 100 µM (inactive) | > 100 µM (inactive) | > 100 µM (inactive) | > 100 µM (inactive) | > 100 µM (inactive) | > 100 µM (inactive) | > 100 µM (inactive) | > 100 µM (inactive) | > 100 µM (inactive)
14 | O=C(/C=C/c1c(O)ccc2ccccc12)c1ccc([N+](=O)[O-])cc1 | 46.5 µM (inactive) | > 83 µM (inactive) | 54.1 µM (inactive) | 18.5 µM (inactive) | 67.1 µM (inactive) | 17.9 µM (inactive) | > 53.5 µM (inactive) | 17.3 µM (inactive) | > 95.9 µM (inactive) | > 88.9 µM (inactive) | 22.9 µM (inactive) | > 100 µM (inactive) | 19.3 µM (inactive) | 25.2 µM (inactive) | 41.5 µM (inactive) | 33.1 µM (inactive) | 19.4 µM (inactive) | 32.7 µM (inactive)
15 | COc1ccc(C2=NC(C)(C)CO2)cc1 | > 100 µM (inactive) | > 100 µM (inactive) | > 100 µM (inactive) | > 100 µM (inactive) | > 100 µM (inactive) | > 100 µM (inactive) | > 100 µM (inactive) | > 100 µM (inactive) | > 100 µM (inactive) | > 100 µM (inactive) | > 100 µM (inactive) | > 100 µM (inactive) | > 100 µM (inactive) | > 100 µM (inactive) | > 100 µM (inactive) | > 100 µM (inactive) | > 100 µM (inactive) | > 100 µM (inactive)
16 | CC1CC2CC(=O)CC3(C1)C2CCCN3CCCO (configuration not stated) | > 100 µM (inactive) | > 100 µM (inactive) | > 100 µM (inactive) | > 100 µM (inactive) | > 100 µM (inactive) | > 100 µM (inactive) | > 100 µM (inactive) | > 100 µM (inactive) | > 100 µM (inactive) | > 100 µM (inactive) | > 100 µM (inactive) | > 100 µM (inactive) | > 100 µM (inactive) | > 100 µM (inactive) | > 100 µM (inactive) | > 100 µM (inactive) | > 100 µM (inactive) | > 100 µM (inactive)
